According to patent US10828301B2, “2,4-pyrimidinediamine compounds and their uses” (Rigel Pharmaceuticals, Inc, priority 2002, dated 2020):

What was measured:
[1] = format: in vivo; details: 14-day repeat-dose; intranasal in rabbits and primates, oral in mice and rats
[2] = tested on: CHMC cells; experiment: ionomycin-induced calcium ion flux in CHMC cells; format: cell-based, human; details: 10 μM compound
[3] = tested on: proteins downstream of Syk kinase and LYN kinase in activated CHMC cells; experiment: Phosphorylation of proteins in the FcεRI signal transduction cascade in activated CHMC cells; format: cell-based, human; details: FIG. 10
[4] = biological target: FcγRI receptor-mediated degranulation; experiment: FcγRI-mediated degranulation (activation with anti-human IgG Fab fragment); details: cells not primed with IgE, activated with rabbit anti-human IgG Fab fragment
[5] = biological target: Syk kinase (Homo sapiens (Human), UniProt P43405); experiment: Isolated Syk kinase biochemical assay (phosphorylation of a peptide or endogenous substrate); details: increasing concentrations, FIG. 8

Oc1cccc(Nc2ncc(F)c(Nc3cccc(O)c3)n2)c1 [Compound R921218, N2,N4-Bis(3-hydroxyphenyl)-5-fluoro-2,4-pyrimidinediamine]
dose limiting toxicity [1]: no dose limiting toxicity | ionomycin-induced Ca2+ flux [2]: no effect on ionomycin-induced Ca^2+ flux | phosphorylation of proteins downstream of Syk kinase in the FcεRI signal transduction cascade [3]: inhibit phosphorylation | inhibition of FcγRI-mediated degranulation [4]: inhibit FcγRI-mediated degranulation | Syk kinase phosphorylation of an endogenous substrate (LAT) and a peptide substrate [5]: dose responsive inhibition
